Where two headings read alike, the source gives them in different places.
Experiments:
[1] = target: T1, α-glucosidase (Saccharomyces cerevisiae, EC.3.2.1.20) (Saccharomyces cerevisiae, UniProt P53341); assay: biochemical; type: biochemical; conditions: mean ± SD, at least three experiments, read-out: IC50 (µM), in vitro α-glucosidase inhibitory activity
T1 construct: purchased Sigma-Aldrich
Protocol: α-Glucosidase enzyme (EC3.2.1.20, Saccharomyces cerevisiae, 20 U/mg) and substrate (p-nitrophenyl glucopyranoside) were purchased from Sigma-Aldrich. […] Finally, the change in absorbance was measured at 405 nm by using spectrophotometer (Gen5, Power wave xs2, BioTek, America). DMSO (10% final concentration) and acarbose were used respectively as control and standard drug. The percentage of enzyme inhibitionwas calculated and IC50 values were obtained from non-linear regression curve using the Logit method.

[2] = test system: breast cancer cell line MDA-MB-231; assay: Cytotoxicity studies, MDA-MB-231; type: cell-based; conditions: MDA-MB-231, at concentration of 100 µM
Protocol: (§1) The cytotoxicity of some of potent compounds including 3d, 3m, 3v, and 3af was evaluated through use of the breast cancer cell line MDA-MB-231 and human pancreatic cancer cell line PANC-1.

[3] = Cytotoxicity studies, MDA-MB-231; type: cell-based; conditions: human, MDA-MB-231 breast cancer cells
Protocol: as §1

[4] = Cytotoxicity studies, PANC-1; type: cell-based, human; conditions: human, PANC-1 pancreatic cancer cells
Protocol: as §1

[5] = test system: human pancreatic cancer cell line PANC-1; assay: Cytotoxicity studies, PANC-1; type: cell-based; conditions: PANC-1, at concentration of 100 µM
Protocol: as §1

T1 sequence (P53341 whole entry): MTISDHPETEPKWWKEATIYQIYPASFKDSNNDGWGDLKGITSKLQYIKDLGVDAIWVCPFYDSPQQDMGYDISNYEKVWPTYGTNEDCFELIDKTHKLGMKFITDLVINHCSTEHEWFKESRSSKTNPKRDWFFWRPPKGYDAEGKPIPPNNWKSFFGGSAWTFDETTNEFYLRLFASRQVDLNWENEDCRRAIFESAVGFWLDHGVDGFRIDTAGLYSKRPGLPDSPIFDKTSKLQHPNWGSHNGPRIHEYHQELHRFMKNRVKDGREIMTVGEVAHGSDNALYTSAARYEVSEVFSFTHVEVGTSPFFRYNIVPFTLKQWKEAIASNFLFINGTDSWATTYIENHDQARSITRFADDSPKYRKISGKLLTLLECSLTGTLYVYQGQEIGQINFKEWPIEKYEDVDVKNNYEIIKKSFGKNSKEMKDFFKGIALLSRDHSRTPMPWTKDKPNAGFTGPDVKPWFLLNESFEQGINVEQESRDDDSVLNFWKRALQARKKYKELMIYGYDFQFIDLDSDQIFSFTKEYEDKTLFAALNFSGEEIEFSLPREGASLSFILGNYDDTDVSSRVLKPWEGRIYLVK

Row | SMILES | melting point [°C] | IC50 ([1]; Table 1, compounds 3a-z) [µM] | further results
1 | CCOC(=O)c1c(-c2ccccc2)nn2c(-c3ccc(Cl)cc3)c(N)c(-c3ccccc3)nc12 [3aa, Ethyl 6-amino-7-(4-chlorophenyl)-2,5-diphenylpyrazolo[1,5-a]pyrimidine-3-carboxylate] | 180 to 182 | – | IC50 ([1]; Table 2, compounds 3aa-ai): 94 ± 3.6 µM
2 | CCOC(=O)c1c(-c2ccccc2)nn2c(-c3ccccc3)c(N)c(-c3ccc(Cl)cc3)nc12 [3ag, Ethyl 6-amino-5-(4-chlorophenyl)-2,7-diphenylpyrazolo[1,5-a]pyrimidine-3-carboxylate] | 238 to 239 | – | IC50 ([1]; Table 2, compounds 3aa-ai): 201 ± 4.2 µM
3 | COc1ccc(-c2nc3c(C(=O)Nc4ccc(Cl)cc4)c(Nc4ccccc4)nn3c(-c3ccccc3)c2N)cc1 [3w, 6-Amino-N-(4-chlorophenyl)-5-(4-methoxyphenyl)-7-phenyl-2-(phenylamino)pyrazolo[1,5-a]pyrimidine-3-carboxamide] | 255 to 257 | 53.7 ± 3.4 | –
4 | CCOC(=O)c1c(-c2ccccc2)nn2c(-c3ccc(Br)cc3)c(N)c(-c3ccc(C)cc3)nc12 [3ad, Ethyl 6-amino-7-(4-bromophenyl)-2-phenyl-5-p-tolylpyrazolo[1,5-a]pyrimidine-3-carboxylate] | 230 to 232 | – | IC50 ([1]; Table 2, compounds 3aa-ai): 141 ± 7 µM
5 | COc1ccc(-c2nc3c(C(=O)Nc4ccccc4)c(Nc4ccccc4)nn3c(-c3ccc(Cl)cc3)c2N)cc1 [3f, 6-Amino-7-(4-chlorophenyl)-5-(4-methoxyphenyl)-N-phenyl-2-(phenylamino)pyrazolo[1,5-a]pyrimidine-3-carboxamide] | 237 to 238 | 85.7 ± 5.3 | –
6 | Nc1c(-c2ccccc2)nc2c(C(=O)Nc3ccc(Cl)cc3)c(Nc3ccccc3)nn2c1-c1ccc(Br)cc1 [3t, 6-Amino-7-(4-bromophenyl)-N-(4-chlorophenyl)-5-phenyl-2-(phenylamino)pyrazolo[1,5-a]pyrimidine-3-carboxamide] | 294 to 296 | 60 ± 4 | –
7 | COc1ccc(NC(=O)c2c(Nc3ccccc3)nn3c(-c4ccc(Cl)cc4)c(N)c(-c4ccc(OC)cc4)nc23)cc1 [3o, 6-Amino-7-(4-chlorophenyl)-N,5-bis(4-methoxyphenyl)-2-(phenylamino)pyrazolo[1,5-a]pyrimidine-3-carboxamide] | 268 to 269 | 56.2 ± 3.2 | –
8 | CCOC(=O)c1c(-c2ccccc2)nn2c(-c3ccc(Cl)cc3)c(N)c(-c3ccc(C)cc3)nc12 [3ac, Ethyl 6-amino-7-(4-chlorophenyl)-2-phenyl-5-p-tolylpyrazolo[1,5-a]pyrimidine-3-carboxylate] | 221 to 223 | – | IC50 ([1]; Table 2, compounds 3aa-ai): 185 ± 6 µM
9 | Nc1c(-c2ccc(Cl)cc2)nc2c(C(=O)Nc3ccc(Cl)cc3)c(Nc3ccccc3)nn2c1-c1ccccc1 [3x, 6-Amino-N,5-bis(4-chlorophenyl)-7-phenyl-2-(phenylamino)pyrazolo[1,5-a]pyrimidine-3-carboxamide] | 255 to 257 | 80.3 ± 5.2 | –
10 | CCOC(=O)c1c(-c2ccccc2)nn2c(-c3ccccc3)c(N)c(-c3ccc(OC)cc3)nc12 [3ae, Ethyl 6-amino-5-(4-methoxyphenyl)-2,7-diphenylpyrazolo[1,5-a]pyrimidine-3-carboxylate] | 189 to 190 | – | IC50 ([1]; Table 2, compounds 3aa-ai): 116 ± 1.8 µM
11 | CCOC(=O)c1c(-c2ccccc2)nn2c(-c3ccc(Br)cc3)c(N)c(-c3ccccc3)nc12 [3ab, Ethyl 6-amino-7-(4-bromophenyl)-2,5-diphenylpyrazolo[1,5-a]pyrimidine-3-carboxylate] | 201 to 202 | – | IC50 ([1]; Table 2, compounds 3aa-ai): 150 ± 4 µM

More lines, in order of falling IC50 ([1]; Table 1, compounds 3a-z), values ahead:

Row | melting point [°C] | IC50 ([1]; Table 1, compounds 3a-z) [µM] | SMILES | further results
12 | 232 to 233 | 44.5 ± 3.1 | Cc1ccc(-c2nc3c(C(=O)Nc4ccccc4)c(Nc4ccccc4)nn3c(-c3ccc(Cl)cc3)c2N)cc1 [3c, 6-Amino-7-(4-chlorophenyl)-N-phenyl-2-(phenylamino)-5-p-tolylpyrazolo[1,5-a]pyrimidine-3-carboxamide] | –
13 | 268 to 270 | 38.2 ± 2.8 | Nc1c(-c2ccc(Cl)cc2)nc2c(C(=O)Nc3ccc(Cl)cc3)c(Nc3ccccc3)nn2c1-c1ccc(Cl)cc1 [3y, 6-Amino-N,5,7-tris(4-chlorophenyl)-2-(phenylamino)pyrazolo[1,5-a]pyrimidine-3-carboxamide] | –
14 | 245 to 246 | 36.5 ± 2.5 | COc1ccc(NC(=O)c2c(Nc3ccccc3)nn3c(-c4ccc(Cl)cc4)c(N)c(-c4ccc(Cl)cc4)nc23)cc1 [3q, 6-Amino-5,7-bis(4-chlorophenyl)-N-(4-methoxyphenyl)-2-(phenylamino)pyrazolo[1,5-a]pyrimidine-3-carboxamide] | –
15 | 245 to 246 | 33.2 ± 2.1 | COc1ccc(NC(=O)c2c(Nc3ccccc3)nn3c(-c4ccccc4)c(N)c(-c4ccc(Cl)cc4)nc23)cc1 [3p, 6-Amino-5-(4-chlorophenyl)-N-(4-methoxyphenyl)-7-phenyl-2-(phenylamino)pyrazolo[1,5-a]pyrimidine-3-carboxamide] | –
16 | 217 to 218 | 30.3 ± 2.1 | COc1ccc(NC(=O)c2c(Nc3ccccc3)nn3c(-c4ccc(Cl)cc4)c(N)c(-c4ccccc4)nc23)cc1 [3j, 6-Amino-7-(4-chlorophenyl)-N-(4-methoxyphenyl)-5-phenyl-2-(phenylamino)pyrazolo[1,5-a]pyrimidine-3-carboxamide] | –
17 | 281 to 283 | 25.7 ± 1.1 | Nc1c(-c2ccc(Cl)cc2)nc2c(C(=O)Nc3ccccc3)c(Nc3ccccc3)nn2c1-c1ccc(Cl)cc1 [3h, 6-Amino-5,7-bis(4-chlorophenyl)-N-phenyl-2-(phenylamino)pyrazolo[1,5-a]pyrimidine-3-carboxamide] | –
18 | 282 to 283 | 24.7 ± 1.1 | COc1ccc(NC(=O)c2c(Nc3ccccc3)nn3c(-c4ccc(Br)cc4)c(N)c(-c4ccc(C)cc4)nc23)cc1 [3m, 6-Amino-7-(4-bromophenyl)-N-(4-methoxyphenyl)-2-(phenylamino)-5-p-tolylpyrazolo[1,5-a]pyrimidine-3-carboxamide] | cytotoxic activity [2]: did not possess any cytotoxic activity; IC50 [3]: > 200 µM; IC50 [4]: > 200 µM; cytotoxic activity [5]: did not possess any cytotoxic activity
19 | 274 to 276 | 19.3 ± 0.9 | Nc1c(-c2ccc(Cl)cc2)nc2c(C(=O)Nc3ccc(Cl)cc3)c(Nc3ccccc3)nn2c1-c1cccs1 [3z, 6-Amino-N,5-bis(4-chlorophenyl)-2-(phenylamino)-7-(thiophen-2-yl)pyrazolo[1,5-a]pyrimidine-3-carboxamide] | –
20 | 240 to 242 | 18.4 ± 0.6 | COc1ccc(NC(=O)c2c(Nc3ccccc3)nn3c(-c4cccs4)c(N)c(-c4ccc(Cl)cc4)nc23)cc1 [3r, 6-Amino-5-(4-chlorophenyl)-N-(4-methoxyphenyl)-2-(phenylamino)-7-(thiophen-2-yl)pyrazolo[1,5-a]pyrimidine-3-carboxamide] | –
21 | 271 to 273 | 17.6 ± 0.6 | Cc1ccc(-c2nc3c(C(=O)Nc4ccc(Cl)cc4)c(Nc4ccccc4)nn3c(-c3ccc(Br)cc3)c2N)cc1 [3v, 6-Amino-7-(4-bromophenyl)-N-(4-chlorophenyl)-2-(phenylamino)-5-p-tolylpyrazolo[1,5-a]pyrimidine-3-carboxamide] | cytotoxic activity [2]: did not possess any cytotoxic activity; IC50 [3]: > 200 µM; IC50 [4]: > 200 µM; cytotoxic activity [5]: did not possess any cytotoxic activity
